IC50 and INH data for 18 compounds are collected here from ChEMBL document CHEMBL3112543, “Discovery of MK-7655, a β-lactamase inhibitor for combination with Primaxin®” (Bioorg Med Chem Lett, 2014).

Where only a bound is given, the exact number is not on record here.

The nature of assay [1]: Inhibition of beta-lactamase KPC-2 in Klebsiella pneumoniae assessed as inhibition of hydrolysis of nitrocefin.
Assay [2] in a line: Inhibition of beta-lactamase AmpC in Pseudomonas aeruginosa assessed as inhibition of hydrolysis of nitrocefin.
In another assay the test system is Pseudomonas aeruginosa. In words: Inhibition of beta-lactamase in Pseudomonas aeruginosa CL 5701 assessed as drug concentration required to reduce imipenem MIC to 4 ug/ml.
A further assay relates to Klebsiella pneumoniae. In words: Inhibition of beta-lactamase in Klebsiella pneumoniae CL 6569 assessed as drug concentration required to reduce imipenem MIC to 4 ug/ml.
The nature of assay [3]: Inhibition of beta-lactamase AmpC in Acinetobacter baumannii assessed as inhibition of hydrolysis of nitrocefin.
Another assay concerns Acinetobacter baumannii. In words: Inhibition of beta-lactamase in Acinetobacter baumannii CL 6188 assessed as drug concentration required to reduce imipenem MIC to 4 ug/ml.
The next assay deals with Beta-lactamase (Acinetobacter baumannii, UniProt Q8RLA6). Nature of the assay: Inhibition of beta-lactamase Oxa40 in Acinetobacter baumannii assessed as inhibition of hydrolysis of nitrocefin.
Chain of Beta-lactamase (Q8RLA6 whole entry): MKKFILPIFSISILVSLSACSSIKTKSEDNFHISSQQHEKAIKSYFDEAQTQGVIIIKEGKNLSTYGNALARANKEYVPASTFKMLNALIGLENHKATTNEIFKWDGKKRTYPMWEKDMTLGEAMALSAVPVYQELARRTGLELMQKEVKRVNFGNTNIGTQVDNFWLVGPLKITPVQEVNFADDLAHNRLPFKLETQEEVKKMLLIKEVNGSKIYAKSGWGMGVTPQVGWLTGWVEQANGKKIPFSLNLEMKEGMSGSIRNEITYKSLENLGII

One may read the IC50 as the point on the concentration scale where inhibition reaches its midpoint. On to `NCc1ccc(NC(=O)[C@@H]2CC[C@@H]3CN2C(=O)N3OS(=O)(=O)O)nc1`, for which the IC50 came out at 42 nM in assay [1], 3 nM in assay [2], 26 nM in assay [3] and 4400 nM on Beta-lactamase. Further, the results for the INH in the assay on Pseudomonas aeruginosa, in the assay on Klebsiella pneumoniae and in the assay on Acinetobacter baumannii were 6.25 µM, 12.5 µM and over 100 µM, respectively.

As for `O=C(N[C@@H]1CCCNCC1)[C@@H]1CC[C@@H]2CN1C(=O)N2OS(=O)(=O)O`, the IC50 was 225 nM in assay [1], 520 nM in assay [2], 1200 nM in assay [3] and over 50000 nM at Beta-lactamase. The INH with Pseudomonas aeruginosa is 6.25 µM; in the assay on Klebsiella pneumoniae, 12.5 µM; with Acinetobacter baumannii it was over 100 µM.

Turning to `O=C(NCC1CCNCC1)[C@@H]1CC[C@@H]2CN1C(=O)N2OS(=O)(=O)O`, the IC50 in assay [1] is 77 nM; in assay [2], 30 nM; in assay [3], 2200 nM; at Beta-lactamase, over 50000 nM. For the same compound, the INH in the assay on Pseudomonas aeruginosa was 6.25 µM; in the assay on Klebsiella pneumoniae, 6.25 µM; in the assay with Acinetobacter baumannii it was over 100 µM.

For `O=C(N[C@H]1CCCNCC1)[C@@H]1CC[C@@H]2CN1C(=O)N2OS(=O)(=O)O`, the IC50 in assay [1] is 245 nM; in assay [2] it was 69 nM; in assay [3], 1700 nM; on Beta-lactamase it was over 50000 nM. For the same compound, the INH was 6.25 µM in the assay with Pseudomonas aeruginosa, 12.5 µM in the assay on Klebsiella pneumoniae and over 100 µM in the assay with Acinetobacter baumannii.

On to `O=C(NC1CCNCC1)[C@@H]1CC[C@@H]2CN1C(=O)N2OS(=O)(=O)O` [RELEBACTAM], for which the values for the IC50 (in assay [2]; in assay [3]; at Beta-lactamase) were 465 nM, 4100 nM and over 50000 nM, respectively. The INH in the assay on Pseudomonas aeruginosa is 4.7 µM; in the assay on Klebsiella pneumoniae it was 12.5 µM; in the assay on Acinetobacter baumannii it was over 100 µM.

In the case of `O=C(N[C@@H]1CCNC1)[C@@H]1CC[C@@H]2CN1C(=O)N2OS(=O)(=O)O`, the IC50 in assay [1] was 260 nM; in assay [2] it was 1900 nM; in assay [3] it was 27000 nM; at Beta-lactamase, over 50000 nM. Also, the values for the INH with Pseudomonas aeruginosa, in the assay on Klebsiella pneumoniae and in the assay with Acinetobacter baumannii were 6.25 µM, 6.25 µM and over 100 µM, respectively.

For the compound `CN(C(=O)[C@@H]1CC[C@@H]2CN1C(=O)N2OS(=O)(=O)O)C1CCNCC1`, the 50% inhibitory concentration (IC50) in assay [1] is 2500 nM; in assay [2], 290 nM; in assay [3] it was 2100 nM; at Beta-lactamase it was over 50000 nM. In addition, the INH in the assay with Pseudomonas aeruginosa is 25 µM; in the assay on Klebsiella pneumoniae, 50 µM; with Acinetobacter baumannii it was over 100 µM.

On to `O=C(Nc1ccccn1)[C@@H]1CC[C@@H]2CN1C(=O)N2OS(=O)(=O)O`, for which the IC50 in assay [1] turned out to be 36 nM; in assay [2], 1.2 nM; in assay [3], 23 nM; at Beta-lactamase, 530 nM. Moreover, the INH was 12.5 µM with Pseudomonas aeruginosa, 100 µM in the assay on Klebsiella pneumoniae and over 100 µM in the assay on Acinetobacter baumannii.

Consider `O=C(N[C@H]1CCNC1)[C@@H]1CC[C@@H]2CN1C(=O)N2OS(=O)(=O)O`, for which the IC50 in assay [1] was 410 nM; in assay [2], 140 nM; in assay [3] it was 5600 nM; on Beta-lactamase, over 50000 nM. Besides, the INH in the assay with Pseudomonas aeruginosa was 3.12 µM; in the assay with Klebsiella pneumoniae, 6.25 µM; with Acinetobacter baumannii it was over 100 µM.

In the case of `N[C@@H](Cc1ccc(NC(=O)[C@@H]2CC[C@@H]3CN2C(=O)N3OS(=O)(=O)O)cc1)C(=O)O`, the IC50 in assay [1] was 3 nM; in assay [2], 11 nM; in assay [3] it was 1100 nM; on Beta-lactamase, 28000 nM. Also, the figures for the INH with Pseudomonas aeruginosa, with Klebsiella pneumoniae and in the assay on Acinetobacter baumannii were 25 µM, 50 µM and over 100 µM, respectively.

For the compound `O=C(NC1CCS(=O)(=O)CC1)[C@@H]1CC[C@@H]2CN1C(=O)N2OS(=O)(=O)O`, the IC50 in assay [1] was 150 nM; in assay [2] it was 9.5 nM; in assay [3], 470 nM; on Beta-lactamase, over 50000 nM. The INH is 50 µM with Pseudomonas aeruginosa, 50 µM in the assay with Klebsiella pneumoniae and over 100 µM in the assay with Acinetobacter baumannii.

Consider `O=C(OC1CCNCC1)[C@@H]1CC[C@@H]2CN1C(=O)N2OS(=O)(=O)O`, for which the IC50 was 9 nM in assay [1], 170 nM in assay [2], 1100 nM in assay [3] and 13000 nM at Beta-lactamase. Further, the INH is 6.25 µM in the assay with Pseudomonas aeruginosa, 6.25 µM in the assay on Klebsiella pneumoniae and over 100 µM in the assay on Acinetobacter baumannii.

As for `Nc1cccc(NC(=O)[C@@H]2CC[C@@H]3CN2C(=O)N3OS(=O)(=O)O)n1`, the IC50 stood at 11 nM in assay [1], 8 nM in assay [2], 100 nM in assay [3] and 360 nM on Beta-lactamase. In addition, the INH in the assay with Pseudomonas aeruginosa was 50 µM; with Klebsiella pneumoniae, 25 µM; in the assay with Acinetobacter baumannii, over 100 µM.

With `O=C(Nc1cccnc1)[C@@H]1CC[C@@H]2CN1C(=O)N2OS(=O)(=O)O`, the IC50 in assay [1] came to 42 nM; in assay [2], 37 nM; in assay [3], 1200 nM; at Beta-lactamase, 20000 nM. The figures for the INH in the assay with Pseudomonas aeruginosa, with Klebsiella pneumoniae and with Acinetobacter baumannii were 100 µM, 50 µM and over 100 µM, respectively.

On to `C[n+]1ccc(NC(=O)[C@@H]2CC[C@@H]3CN2C(=O)N3OS(=O)(=O)[O-])cc1`, for which the IC50 in assay [1] is 260 nM; in assay [2], 210 nM; in assay [3] it was 12000 nM; on Beta-lactamase, over 50000 nM. The INH with Pseudomonas aeruginosa was 25 µM; in the assay on Klebsiella pneumoniae, 25 µM; in the assay on Acinetobacter baumannii it was over 100 µM.

Consider `CN1CCC(NC(=O)[C@@H]2CC[C@@H]3CN2C(=O)N3OS(=O)(=O)O)CC1`, for which the IC50 in assay [1] was 240 nM; in assay [2], 500 nM; in assay [3], 2700 nM; at Beta-lactamase it was over 50000 nM. Also, the INH was 12.5 µM with Pseudomonas aeruginosa, 12.5 µM in the assay with Klebsiella pneumoniae and over 100 µM with Acinetobacter baumannii.

`O=C(Nc1ccncc1)[C@@H]1CC[C@@H]2CN1C(=O)N2OS(=O)(=O)O`: the IC50 turned out to be 6 nM in assay [2], 1050 nM in assay [3] and 20000 nM on Beta-lactamase. In addition, the INH with Pseudomonas aeruginosa is 25 µM; with Klebsiella pneumoniae, 50 µM; with Acinetobacter baumannii, over 100 µM.

With `O=C(O)c1ccc(NC(=O)[C@@H]2CC[C@@H]3CN2C(=O)N3OS(=O)(=O)O)cc1`, the IC50 in assay [1] was 10 nM; in assay [2], 11 nM; in assay [3] it was 460 nM; on Beta-lactamase, 4800 nM. The INH with Pseudomonas aeruginosa was 50 µM; in the assay on Klebsiella pneumoniae, over 100 µM; with Acinetobacter baumannii it was over 100 µM.
